# Measured values reported in patent US8980793B2, “Phytosanitary formulations” (Centre National de la Recherche Scientifique (CNRS), priority 2007, dated 2015).
# Legend:
# [1] = Mikado spread on maize plants planted in a field, leaf surface checked by HPLC; settings: spread as Mikado
# Description: For this aim, the commercial formulation, Mikado®, has been spread on maize plants planted in a field.
# The amount of sulcotrione and the formation of a by-product of the phototransformation on the surface of the leaves have been checked by HPLC.
# [2] = cited from earlier work
# [3] = Tests in darkness on wax films (penetration and volatilisation); assay type: physicochemical; settings: wax film
# Description: The methodology for conducting the tests on thin films of cuticular wax comprises the following steps: • Preparation of the wax film: the wax which is used is the commercial carnauba wax. • Adding the pesticide. On the one hand, the active ingredient, sulcotrione, and on the other hand, the commercial formulation, Mikado®(alone or with the adding of at least one extract of at least one tinctorial plant, is deposited under the form of an aqueous solution on the surface of the leaves. The amount of active ingredient deposited by surface unit is equivalent to the amount used in agriculture. The studies are conducted after evaporation of the water. • Recovering of the pesticide. The films are rinsed with water and analysed by HPLC. It has been checked that the step of recovering is quantitative. • Tests in darkness. The concentration of the active ingredients on the surface of the leaves in darkness is controlled in order to measure the penetration rate of the active ingredient in the films and its volatilisation. […] Irradiation tests are conducted in a Suntest reactor simulating solar rays in temperate countries.
# [4] = Photodegradation of sulcotrione on carnauba wax films irradiated in a Suntest reactor, HPLC analysis; assay type: physicochemical; settings: wax film, 6 hours irradiation
# Description: The methodology for conducting the tests on thin films of cuticular wax comprises the following steps: • Preparation of the wax film: the wax which is used is the commercial carnauba wax. • Adding the pesticide. On the one hand, the active ingredient, sulcotrione, and on the other hand, the commercial formulation, Mikado®(alone or with the adding of at least one extract of at least one tinctorial plant, is deposited under the form of an aqueous solution on the surface of the leaves. The amount of active ingredient deposited by surface unit is equivalent to the amount used in agriculture. The studies are conducted after evaporation of the water. • Recovering of the pesticide. The films are rinsed with water and analysed by HPLC. It has been checked that the step of recovering is quantitative. • Tests in darkness. The concentration of the active ingredients on the surface of the leaves in darkness is controlled in order to measure the penetration rate of the active ingredient in the films and its volatilisation. […]
# The photoprotective effects of the extracts according to the invention have been evaluated as follows The surface concentration of the active ingredient (sulcotrione) on the wax films is of 0.76 10^−5 g/cm^2, the active ingredient being used either pure or under the form of a commercial formulation. […]
smiles,measurement,setting,value
CS(=O)(=O)c1ccc(C(=O)C2C(=O)CCCC2=O)c(Cl)c1 [sulcotrione],detection of sulcotrione on the surface of the leaves,"[1]; maize plants in a field, after 24 hours",no longer detected
same,sulcotrione transformed,"[1]; surface of maize leaves in a field, after one hour",25%
same,half-life in water,[2],about 80 days
same,penetration of the active ingredient into the films,[3],penetrates slowly into the films
same,volatilisation of the active ingredient,[3],very little active ingredients volatilize
same,Weight percentage of remaining active ingredient after 6 hours of UV exposure,[4],5-10%
